Source: ChEMBL document CHEMBL4145521, “Regioselective synthesis of 3,4-diaryl-5-unsubstituted isoxazoles, analogues of natural cytostatic combretastatin A4” (Eur J Med Chem, 2018)

Legend:
Assay type in all cases: functional
[1] = tested on: SK-OV-3; experiment: Cytotoxicity against human SKOV3 cells incubated for 48 hrs by sulforhodamine B assay; conditions: SK-OV-3, 48 h
[2] = tested on: NCI-H522; experiment: Cytotoxicity against human NCI-H522 cells incubated for 48 hrs by sulforhodamine B assay; conditions: NCI-H522, 48 h
[3] = tested on: SNB-19; experiment: Cytotoxicity against human SNB19 cells assessed as cell growth at 0.01 uM incubated for 48 hrs by sulforhodamine B assay relative to control; conditions: SNB-19, 48 h, read-out: Activity
[4] = tested on: HT-29; experiment: Cytotoxicity against human HT-29 cells assessed as cell growth at 1 uM incubated for 48 hrs by sulforhodamine B assay relative to control; conditions: HT-29, 48 h, read-out: Activity
[5] = tested on: SK-MEL-5; experiment: Cytotoxicity against human SK-MEL-5 cells incubated for 48 hrs by sulforhodamine B assay; conditions: SK-MEL-5, 48 h
[6] = tested on: KM12; experiment: Cytotoxicity against human KM12 cells assessed as cell growth at 10 uM incubated for 48 hrs by sulforhodamine B assay relative to control; conditions: KM12, 48 h, read-out: Activity
[7] = tested on: TK-10; experiment: Cytotoxicity against human TK10 cells assessed as cell growth at 10 uM incubated for 48 hrs by sulforhodamine B assay relative to control; conditions: TK-10, 48 h, read-out: Activity
[8] = tested on: U-251; experiment: Cytotoxicity against human U251 cells assessed as cell growth at 100 uM incubated for 48 hrs by sulforhodamine B assay relative to control; conditions: U-251, 48 h, read-out: Activity
[9] = tested on: CCRF-CEM; experiment: Cytotoxicity against human CCRF-CEM cells incubated for 48 hrs by sulforhodamine B assay
[10] = tested on: RXF 393; experiment: Cytotoxicity against human RXF393 cells assessed as cell growth at 1 uM incubated for 48 hrs by sulforhodamine B assay relative to control; conditions: RXF 393, 48 h, read-out: Activity
[11] = tested on: MDA-MB-231; experiment: Cytotoxicity against human MDA-MB-231 cells assessed as cell growth at 0.01 uM incubated for 48 hrs by sulforhodamine B assay relative to control; conditions: MDA-MB-231, 48 h, read-out: Activity
[12] = tested on: NCI-H226; experiment: Cytotoxicity against human NCI-H226 cells incubated for 48 hrs by sulforhodamine B assay; conditions: NCI-H226, 48 h
[13] = tested on: SNB-19; experiment: Cytotoxicity against human SNB19 cells assessed as cell growth at 100 uM incubated for 48 hrs by sulforhodamine B assay relative to control; conditions: SNB-19, 48 h, read-out: Activity
[14] = tested on: OVCAR-5; experiment: Cytotoxicity against human OVCAR5 cells incubated for 48 hrs by sulforhodamine B assay; conditions: OVCAR-5, 48 h
[15] = tested on: SR; experiment: Cytotoxicity against human SR cells assessed as cell growth at 10 uM incubated for 48 hrs by sulforhodamine B assay relative to control; conditions: read-out: Activity
[16] = tested on: HT-29; experiment: Cytotoxicity against human HT-29 cells assessed as cell growth at 0.1 uM incubated for 48 hrs by sulforhodamine B assay relative to control; conditions: HT-29, 48 h, read-out: Activity
[17] = tested on: LOX IMVI; experiment: Cytotoxicity against human LOXIMVI cells assessed as cell growth at 100 uM incubated for 48 hrs by sulforhodamine B assay relative to control; conditions: read-out: Activity
[18] = tested on: SF-268; experiment: Cytotoxicity against human SF268 cells assessed as cell growth at 0.01 uM incubated for 48 hrs by sulforhodamine B assay relative to control; conditions: SF-268, 48 h, read-out: Activity
[19] = tested on: K562; experiment: Cytotoxicity against human K562 cells assessed as cell growth at 10 uM incubated for 48 hrs by sulforhodamine B assay relative to control; conditions: K562, 48 h, read-out: Activity
[20] = tested on: RXF 393; experiment: Cytotoxicity against human RXF393 cells assessed as cell growth at 10 uM incubated for 48 hrs by sulforhodamine B assay relative to control; conditions: RXF 393, 48 h, read-out: Activity
[21] = tested on: SW-620; experiment: Cytotoxicity against human SW620 cells assessed as cell growth at 10 uM incubated for 48 hrs by sulforhodamine B assay relative to control; conditions: SW-620, 48 h, read-out: Activity
[22] = tested on: SR; experiment: Cytotoxicity against human SR cells assessed as cell growth at 100 uM incubated for 48 hrs by sulforhodamine B assay relative to control; conditions: read-out: Activity
[23] = tested on: SF-268; experiment: Cytotoxicity against human SF268 cells assessed as cell growth at 10 uM incubated for 48 hrs by sulforhodamine B assay relative to control; conditions: SF-268, 48 h, read-out: Activity
[24] = tested on: MDA-MB-468; experiment: Cytotoxicity against human MDA-MB-468 cells incubated for 48 hrs by sulforhodamine B assay; conditions: MDA-MB-468, 48 h
[25] = tested on: M14; experiment: Cytotoxicity against human M14 cells assessed as cell growth at 0.01 uM incubated for 48 hrs by sulforhodamine B assay relative to control; conditions: M14, 48 h, read-out: Activity
[26] = tested on: HT-29; experiment: Cytotoxicity against human HT-29 cells assessed as cell growth at 10 uM incubated for 48 hrs by sulforhodamine B assay relative to control; conditions: HT-29, 48 h, read-out: Activity
[27] = tested on: TK-10; experiment: Cytotoxicity against human TK10 cells incubated for 48 hrs by sulforhodamine B assay; conditions: TK-10, 48 h
[28] = tested on: PC-3; experiment: Cytotoxicity against human PC3 cells incubated for 48 hrs by sulforhodamine B assay; conditions: PC-3, 48 h
[29] = tested on: HOP-62; experiment: Cytotoxicity against human HOP62 cells assessed as cell growth at 10 uM incubated for 48 hrs by sulforhodamine B assay relative to control; conditions: HOP-62, 48 h, read-out: Activity

## COc1ccc(-c2nocc2-c2cc(OC)c(OC)c(OC)c2)cc1
[1]; read-out: GI50
  GI50: 0.296 µM
[1]; read-out: LC50
  LC50: > 100 µM
[1]; read-out: TGI
  TGI: > 100 µM
[1]; read-out: pGI50 (converted)
  GI50: 0.295 µM
[1]; read-out: pLC50 (converted)
  LC50: > 100 µM
[1]; read-out: pTGI
  TGI: > 100 µM
[2]; read-out: GI50
  GI50: 0.0225 µM
[2]; read-out: LC50
  LC50: > 100 µM
[2]; read-out: TGI
  TGI: 0.0752 µM
[2]; read-out: pGI50 (converted)
  GI50: 0.0224 µM
[2]; read-out: pLC50 (converted)
  LC50: > 100 µM
[2]; read-out: pTGI (converted)
  TGI: 0.0759 µM
[3]
  growth at 0.01 µM: 98%
[4]
  growth at 1 µM: 2%
[5]; read-out: GI50
  GI50: 0.0715 µM
[5]; read-out: LC50
  LC50 (concentration killing 50% of cells): 27.7 µM
[5]; read-out: TGI
  TGI: 5.25 µM
[5]; read-out: pGI50 (converted)
  GI50: 0.0708 µM
[5]; read-out: pLC50 (converted)
  LC50 (concentration killing 50% of cells): 27.5 µM
[5]; read-out: pTGI
  TGI: 5.25 µM
[6]
  growth at 10 µM: 6%
[7]
  growth at 10 µM: 18%
[8]
  growth at 100 µM: -4%
[9]; read-out: GI50
  GI50: 0.404 µM
[9]; read-out: LC50
  LC50: > 100 µM
[9]; read-out: TGI
  TGI: > 100 µM
[9]; read-out: pGI50 (converted)
  GI50: 0.407 µM
[9]; read-out: pLC50 (converted)
  LC50: > 100 µM
[9]; read-out: pTGI
  TGI: > 100 µM
[10]
  growth at 1 µM: -7%
[11]
  growth at 0.01 µM: 98%
[12]; read-out: GI50
  GI50: 15.5 µM
[12]; read-out: LC50
  LC50: > 100 µM
[12]; read-out: TGI
  TGI: 58.3 µM
[12]; read-out: pGI50 (converted)
  GI50: 15.5 µM
[12]; read-out: pLC50 (converted)
  LC50: > 100 µM
[12]; read-out: pTGI (converted)
  TGI: 58.9 µM
[13]
  growth at 100 µM: 8%
[14]; read-out: GI50
  GI50: 1.65 µM
[14]; read-out: LC50
  LC50: > 100 µM
[14]; read-out: TGI
  TGI: > 100 µM
[14]; read-out: pGI50 (converted)
  GI50: 1.66 µM
[14]; read-out: pLC50 (converted)
  LC50: > 100 µM
[14]; read-out: pTGI
  TGI: > 100 µM
[15]
  growth at 10 µM: 22%
[16]
  growth at 0.1 µM: 13%
[17]
  growth at 100 µM: -7%
[18]
  growth at 0.01 µM: 95%
[19]
  growth at 10 µM: 9%
[20]
  growth at 10 µM: 1%
[21]
  growth at 10 µM: 19%
[22]
  growth at 100 µM: -7%
[23]
  growth at 10 µM: 27%
[24]; read-out: GI50
  GI50: 0.123 µM
[24]; read-out: LC50
  LC50: > 100 µM
[24]; read-out: TGI
  TGI: 13.8 µM
[24]; read-out: pGI50 (converted)
  GI50: 0.123 µM
[24]; read-out: pLC50 (converted)
  LC50: > 100 µM
[24]; read-out: pTGI (converted)
  TGI: 13.8 µM
[25]
  growth at 0.01 µM: 90%
[26]
  growth at 10 µM: 3%
[27]; read-out: GI50
  GI50: 0.0792 µM
[27]; read-out: LC50 (the source's name)
  CC50: > 100 µM
[27]; read-out: TGI
  TGI: 43.1 µM
[27]; read-out: pGI50 (converted)
  GI50: 0.0794 µM
[27]; read-out: pLC50 (the source's name) (converted)
  CC50: > 100 µM
[27]; read-out: pTGI (converted)
  TGI: 42.7 µM
[28]; read-out: GI50
  GI50: 0.0671 µM
[28]; read-out: LC50
  LC50 (concentration killing 50% of cells): > 100 µM
[28]; read-out: TGI
  TGI: 42.5 µM
[28]; read-out: pGI50 (converted)
  GI50: 0.0676 µM
[28]; read-out: pLC50 (converted)
  LC50 (concentration killing 50% of cells): > 100 µM
[28]; read-out: pTGI (converted)
  TGI: 42.7 µM
[29]
  growth at 10 µM: 35%
